Measurements as given in PubChem BioAssay AID1259407 (Chemical Carcinogenesis Research Information System (CCRIS), 2018).
Activity calls are given as the source filed them. How the calls were made is not given here.

Tested on: CCRIS mutagenicity, Ames/micronucleus/aberration tests
Assay: CCRIS mutagenicity studies
[1] = Test System: AMES SALMONELLA TYPHIMURIUM, Strain/Indicator: TA98, Metabolic Activation: NONE, Method: PREINCUBATION
[2] = Test System: AMES SALMONELLA TYPHIMURIUM, Strain/Indicator: TA98, Metabolic Activation: RAT, LIVER, S-9, PCB, Method: PREINCUBATION
[3] = Test System: AMES SALMONELLA TYPHIMURIUM, Strain/Indicator: TA98, Metabolic Activation: NONE, Method: STANDARD PLATE
[4] = Test System: AMES SALMONELLA TYPHIMURIUM, Strain/Indicator: TA98, Metabolic Activation: RAT, LIVER, S-9, AROCLOR 1254, Method: STANDARD PLATE
[5] = Test System: AMES SALMONELLA TYPHIMURIUM, Strain/Indicator: TA100, Metabolic Activation: NONE, Method: STANDARD PLATE
[6] = Test System: AMES SALMONELLA TYPHIMURIUM, Strain/Indicator: TA100, Metabolic Activation: RAT, LIVER, S-9, AROCLOR 1254, Method: STANDARD PLATE
[7] = Test System: AMES SALMONELLA TYPHIMURIUM, Strain/Indicator: TA1535, Metabolic Activation: NONE, Method: STANDARD PLATE
[8] = Test System: AMES SALMONELLA TYPHIMURIUM, Strain/Indicator: TA1535, Metabolic Activation: RAT, LIVER, S-9, AROCLOR 1254, Method: STANDARD PLATE
[9] = Test System: AMES SALMONELLA TYPHIMURIUM, Strain/Indicator: TA1537, Metabolic Activation: NONE, Method: STANDARD PLATE
[10] = Test System: AMES SALMONELLA TYPHIMURIUM, Strain/Indicator: TA1537, Metabolic Activation: RAT, LIVER, S-9, AROCLOR 1254, Method: STANDARD PLATE
[11] = Test System: AMES SALMONELLA TYPHIMURIUM, Strain/Indicator: TA98, Metabolic Activation: HAMSTER, LIVER, S-9, AROCLOR 1254 (10%), Method: PREINCUBATION
[12] = Test System: AMES SALMONELLA TYPHIMURIUM, Strain/Indicator: TA98, Metabolic Activation: RAT, LIVER, S-9, AROCLOR 1254 (10%), Method: PREINCUBATION
[13] = Test System: AMES SALMONELLA TYPHIMURIUM, Strain/Indicator: TA100, Metabolic Activation: HAMSTER, LIVER, S-9, AROCLOR 1254 (10%), Method: PREINCUBATION
[14] = Test System: AMES SALMONELLA TYPHIMURIUM, Strain/Indicator: TA100, Metabolic Activation: NONE, Method: PREINCUBATION
[15] = Test System: AMES SALMONELLA TYPHIMURIUM, Strain/Indicator: TA100, Metabolic Activation: RAT, LIVER, S-9, AROCLOR 1254 (10%), Method: PREINCUBATION
[16] = Test System: AMES SALMONELLA TYPHIMURIUM, Strain/Indicator: TA1535, Metabolic Activation: RAT, LIVER, S-9, AROCLOR 1254 (10%), Method: PREINCUBATION

## C[C@H](CCC(=O)O)[C@H]1CC[C@H]2[C@@H]3CC[C@@H]4C[C@@H](O)CC[C@]4(C)[C@H]3CC(=O)[C@]12C
Test System: AMES SALMONELLA TYPHIMURIUM, Strain/Indicator: TA98, Metabolic Activation: NONE, Method: FLUCTUATION TEST
  mutagenic call: inactive; negative
[1]
  mutagenic call: inactive; negative
[2]
  mutagenic call: inactive; negative
Test System: AMES SALMONELLA TYPHIMURIUM, Strain/Indicator: TA100, Metabolic Activation: NONE, Method: FLUCTUATION TEST
  mutagenic call: inactive; negative

## O=c1c(Cl)c(Cl)cnn1S(=O)(=O)c1ccc(Cl)cc1Cl
[3]
  mutagenic call: inactive; negative
[4]
  mutagenic call: inactive; negative
[5]
  mutagenic call: inactive; negative
[6]
  mutagenic call: inactive; negative
[7]
  mutagenic call: inactive; negative
[8]
  mutagenic call: inactive; negative
[9]
  mutagenic call: inactive; negative
[10]
  mutagenic call: inactive; negative

## CC(Br)(CO)CBr (stereo not given)
[5]
  mutagenic call: inactive; negative

## O=[N+]([O-])c1ccc(Nc2ccccc2O)c([N+](=O)[O-])c1
Test System: AMES SALMONELLA TYPHIMURIUM, Strain/Indicator: TA97, Metabolic Activation: HAMSTER, LIVER, S-9, AROCLOR 1254 (10%), Method: PREINCUBATION
  mutagenic call: active; positive
Test System: AMES SALMONELLA TYPHIMURIUM, Strain/Indicator: TA97, Metabolic Activation: NONE, Method: PREINCUBATION
  mutagenic call: active; positive
Test System: AMES SALMONELLA TYPHIMURIUM, Strain/Indicator: TA97, Metabolic Activation: RAT, LIVER, S-9, AROCLOR 1254 (10%), Method: PREINCUBATION
  mutagenic call: active; positive
[11]
  mutagenic call: active; positive
[1]
  mutagenic call: active; positive
[12]
  mutagenic call: active; positive
[13]
  mutagenic call: active; positive
[14]
  mutagenic call: inactive; negative
[15]
  mutagenic call: active; positive
[16]
  mutagenic call: active; positive

## CCN(CC)c1cc(NC(C)=O)c(N=Nc2c(Cl)cc([N+](=O)[O-])cc2[N+](=O)[O-])cc1OC
End Point: IN VITRO CHROMOSOMAL ABERRATIONS, Test System: CHL CELLS, Metabolic Activation: RAT, LIVER, S-9, SODIUM PHENOBARBITAL AND 5,6-BENZOFLAVONE
  mutagenic call: inactive; negative

## C=C(C)C(=O)OCC(C)C
[11]
  mutagenic call: inactive; negative
[1]
  mutagenic call: inactive; negative
[12]
  mutagenic call: inactive; negative
[13]
  mutagenic call: inactive; negative
[14]
  mutagenic call: inactive; negative
[15]
  mutagenic call: inactive; negative
Test System: AMES SALMONELLA TYPHIMURIUM, Strain/Indicator: TA1535, Metabolic Activation: HAMSTER, LIVER, S-9, AROCLOR 1254 (10%), Method: PREINCUBATION
  mutagenic call: inactive; negative
Test System: AMES SALMONELLA TYPHIMURIUM, Strain/Indicator: TA1535, Metabolic Activation: NONE, Method: PREINCUBATION
  mutagenic call: inactive; negative
[16]
  mutagenic call: inactive; negative
Test System: AMES SALMONELLA TYPHIMURIUM, Strain/Indicator: TA1537, Metabolic Activation: HAMSTER, LIVER, S-9, AROCLOR 1254 (10%), Method: PREINCUBATION
  mutagenic call: inactive; negative
Test System: AMES SALMONELLA TYPHIMURIUM, Strain/Indicator: TA1537, Metabolic Activation: NONE, Method: PREINCUBATION
  mutagenic call: inactive; negative
Test System: AMES SALMONELLA TYPHIMURIUM, Strain/Indicator: TA1537, Metabolic Activation: RAT, LIVER, S-9, AROCLOR 1254 (10%), Method: PREINCUBATION
  mutagenic call: inactive; negative

## CCCCNC(=O)c1cc(N)ccc1Oc1ccccc1
Test System: Ames Salmonella typhimurium, Strain/Indicator: TA98, Metabolic Activation: None, Method: Preincubation
  mutagenic call: inactive; negative. data for this compound, pa10, mentioned in abstract only.
Test System: Ames Salmonella typhimurium, Strain/Indicator: TA98, Metabolic Activation: Rat, Liver, S-9, Phenobarbital and beta-naphthoflavone, Method: Preincubation
  mutagenic call: inactive; negative. this compound, pa10, converted by s-9 to a hydroxy derivative.
Test System: Ames Salmonella typhimurium, Strain/Indicator: TA100, Metabolic Activation: None, Method: Preincubation
  mutagenic call: inactive; negative. data for this compound, pa10, mentioned in abstract only.
Test System: Ames Salmonella typhimurium, Strain/Indicator: TA100, Metabolic Activation: Rat, Liver, S-9, Phenobarbital and beta-naphthoflavone, Method: Preincubation
  mutagenic call: inactive; negative. this compound, pa10, converted by s-9 to a hydroxy derivative.
Test System: Ames Salmonella typhimurium, Strain/Indicator: TA102, Metabolic Activation: None, Method: Preincubation
  mutagenic call: inactive; negative. data for this compound, pa10, mentioned in abstract only.
Test System: Ames Salmonella typhimurium, Strain/Indicator: TA1535, Metabolic Activation: None, Method: Preincubation
  mutagenic call: inactive; negative. data for this compound, pa10, mentioned in abstract only.
Test System: Ames Salmonella typhimurium, Strain/Indicator: TA1537, Metabolic Activation: None, Method: Preincubation
  mutagenic call: inactive; negative. data for this compound, pa10, mentioned in abstract only.

## O=C(Cl)OCc1ccccc1
[3]
  mutagenic call: inactive; negative
[4]
  mutagenic call: inactive; negative
[5]
  mutagenic call: inactive; negative
[6]
  mutagenic call: inactive; negative
[7]
  mutagenic call: inactive; negative
[8]
  mutagenic call: inactive; negative
[9]
  mutagenic call: inactive; negative
[10]
  mutagenic call: inactive; negative

## O=c1cc(-c2ccccc2)cc(-c2ccccc2)n1/N=C/c1ccc([N+](=O)[O-])o1
Test System: AMES SALMONELLA TYPHIMURIUM, Strain/Indicator: TA97, Metabolic Activation: NONE, Method: STANDARD PLATE
  mutagenic call: inactive; negative
[3]
  mutagenic call: inactive; negative
[5]
  mutagenic call: active; positive
Test System: AMES SALMONELLA TYPHIMURIUM, Strain/Indicator: TA102, Metabolic Activation: NONE, Method: STANDARD PLATE
  mutagenic call: inactive; negative

## COc1ccc2nc3cc(Cl)ccc3c(NCCCNCCCl)c2c1
Test System: AMES SALMONELLA TYPHIMURIUM, Strain/Indicator: TA97A, Metabolic Activation: NONE, Method: STANDARD PLATE
  mutagenic call: active; positive
[3]
  mutagenic call: active; positive
[5]
  mutagenic call: active; positive
[7]
  mutagenic call: inactive; negative
Test System: AMES SALMONELLA TYPHIMURIUM, Strain/Indicator: TA1536, Metabolic Activation: NONE, Method: STANDARD PLATE
  mutagenic call: active; positive
Test System: AMES SALMONELLA TYPHIMURIUM, Strain/Indicator: TA1538, Metabolic Activation: NONE, Method: STANDARD PLATE
  mutagenic call: active; positive
Test System: CHINESE HAMSTER V-79, Strain/Indicator: V-79/6-THIOGUANINE, Metabolic Activation: NONE, Method: FLASK ASSAY
  mutagenic call: active; positive
Test System: CHO/HGPRT, Strain/Indicator: CHO-K1-BH4, Metabolic Activation: NONE, Method: STANDARD PLATE
  mutagenic call: active; positive
Test System: UDS RODENT CELLS, Strain/Indicator: THY INCORP (NON-S-PHASE), Metabolic Activation: NONE, Method: LIQUID SCINTILLATION COUNTING
  mutagenic call: active; positive

## Cc1cnc2cc3nc(N)n(C)c3c(C)c2n1
[2]
  mutagenic call: active; positive
Test System: AMES SALMONELLA TYPHIMURIUM, Strain/Indicator: TA98, Metabolic Activation: S-9
  mutagenic call: active; positive
Test System: AMES SALMONELLA TYPHIMURIUM, Strain/Indicator: TA98, Metabolic Activation: S-9, Method: PREINCUBATION
  mutagenic call: active; positive
Test System: AMES SALMONELLA TYPHIMURIUM, Strain/Indicator: YG1024, Metabolic Activation: RAT, LIVER, S-9, PCB, Method: PREINCUBATION
  mutagenic call: active; positive
Test System: AMES SALMONELLA TYPHIMURIUM, Strain/Indicator: YG1024, Metabolic Activation: S-9
  mutagenic call: active; positive

## CCNC(=O)/C=C/c1ccc([N+](=O)[O-])o1
[1]
  mutagenic call: active; positive
